ChEMBL document CHEMBL1201862, “PubChem BioAssay data set” (2004)
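Results reflect a 48-hour exposure of cells in 96-well plates to compound at five concentrations. GI50 marks 50% less growth.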 Activity calls are given as the source filed them. Cut-off read from the data, not from the text of the source: active = GI50 up to about 1.1 µM and inactive = higher.

Experiments:
Assay in all cases: NCI anticancer screen, dose series, 48 h
SF-539 = tested on: SF-539
LOX IMVI = tested on: LOX IMVI
NCI-H23 = tested on: NCI-H23
SK-MEL-5 = tested on: SK-MEL-5
SNB-75 = tested on: SNB-75
HOP-92 = tested on: HOP-92
HCC 2998 = tested on: HCC 2998
SK-MEL-28 = tested on: SK-MEL-28
OVCAR-8 = tested on: OVCAR-8
CAKI-1 = tested on: CAKI-1
IGROV-1 = tested on: IGROV-1
786-0 = tested on: 786-0
MCF7 = tested on: MCF7
RXF 393 = tested on: RXF 393
SR = tested on: SR
MDA-MB-231 = tested on: MDA-MB-231
MDA-N = tested on: MDA-N
SN12C = tested on: SN12C
PC-3 = tested on: PC-3

| SMILES | GI50 (SF-539) | GI50 (LOX IMVI) | GI50 (NCI-H23) | GI50 (SK-MEL-5) | GI50 (SNB-75) | GI50 (HOP-92) | GI50 (HCC 2998) | GI50 (SK-MEL-28) | GI50 (OVCAR-8) | GI50 (CAKI-1) | GI50 (IGROV-1) | GI50 (786-0) | GI50 (MCF7) | GI50 (RXF 393) | GI50 (SR) | GI50 (MDA-MB-231) | GI50 (MDA-N) | GI50 (SN12C) | GI50 (PC-3) |
| --- | --- | --- | --- | --- | --- | --- | --- | --- | --- | --- | --- | --- | --- | --- | --- | --- | --- | --- | --- |
| COc1ccc2[nH]c3c(c2c1)CCN(C)CC3 | > 100 µM (inactive) | > 100 µM (inactive) | > 100 µM (inactive) | > 100 µM (inactive) | > 100 µM (inactive) | > 100 µM (inactive) | > 100 µM (inactive) | > 100 µM (inactive) | > 100 µM (inactive) | > 100 µM (inactive) | > 100 µM (inactive) | > 100 µM (inactive) |  |  |  |  |  |  |  |
| CCc1ccc(Nc2cc(=O)[nH]c(SCc3ccccc3)n2)cc1 | 52 µM (inactive) | > 100 µM (inactive) | 61.5 µM (inactive) | 78 µM (inactive) | 30.3 µM (inactive) | 31.2 µM (inactive) |  |  | 44.9 µM (inactive) | > 100 µM (inactive) | > 100 µM (inactive) | 43.6 µM (inactive) | > 100 µM (inactive) | > 100 µM (inactive) | > 100 µM (inactive) | 4.17 µM (inactive) | > 100 µM (inactive) | > 100 µM (inactive) |  |
| CCOCc1cc(=O)c2c(OC)cc3c(c2o1)CCC(C)(C)O3 | > 100 µM (inactive) | > 100 µM (inactive) | > 100 µM (inactive) | > 100 µM (inactive) | > 100 µM (inactive) | 33.4 µM (inactive) | > 100 µM (inactive) | > 100 µM (inactive) | > 100 µM (inactive) |  | > 100 µM (inactive) | > 100 µM (inactive) |  | > 100 µM (inactive) | > 100 µM (inactive) |  |  | > 100 µM (inactive) |  |
| CC12CCC3c4cc(Br)c(O)c(Br)c4CCC3C1CCC2O (stereo not given) | 18.5 µM (inactive) | 18.1 µM (inactive) |  |  | 16.3 µM (inactive) | > 10 µM (inactive) | 12.7 µM (inactive) | 17.9 µM (inactive) | 14 µM (inactive) | 15.6 µM (inactive) | 15.8 µM (inactive) | 18.7 µM (inactive) | 27.2 µM (inactive) | 12.7 µM (inactive) |  | 13.3 µM (inactive) | 3.98 µM (inactive) | 19 µM (inactive) | 29.4 µM (inactive) |
| Cc1ncc([N+](=O)[O-])n1CCNC(=O)CCCCn1ccnc1[N+](=O)[O-] | > 100 µM (inactive) |  | > 100 µM (inactive) | > 100 µM (inactive) | 97.5 µM (inactive) |  | > 100 µM (inactive) |  | > 100 µM (inactive) | > 100 µM (inactive) | > 100 µM (inactive) | > 100 µM (inactive) | > 100 µM (inactive) |  | > 100 µM (inactive) | > 100 µM (inactive) | > 100 µM (inactive) | > 100 µM (inactive) | > 100 µM (inactive) |
| CC(C)/C(Cl)=N\OC(=O)NNc1ccccc1 | 29.3 µM (inactive) | 12.6 µM (inactive) | 26.8 µM (inactive) | 0.0966 µM (active) | > 100 µM (inactive) | 16.3 µM (inactive) | 44.9 µM (inactive) |  | 0.168 µM (active) | 14.8 µM (inactive) | 1.8 µM (inactive) | 29 µM (inactive) | 8.93 µM (inactive) | > 100 µM (inactive) |  | 41.9 µM (inactive) | 20 µM (inactive) | > 48.1 µM (inactive) | 0.174 µM (active) |
| COc1cc2ccnc3c2c(c1OC)-c1coc(SC)c1-3 | 56.5 µM (inactive) | 82 µM (inactive) |  | 54.7 µM (inactive) | 19.7 µM (inactive) | 29 µM (inactive) | > 100 µM (inactive) |  | 35.2 µM (inactive) | 20.8 µM (inactive) | > 100 µM (inactive) | 57 µM (inactive) |  | 4.67 µM (inactive) | 40.2 µM (inactive) |  |  | > 100 µM (inactive) |  |
| COc1cc2cc(C(=O)N3CC(COS(C)(=O)=O)c4ccc(O)cc43)[nH]c2c(OC)c1OC (stereo not given) | < 0.0001 µM (active) | < 0.0001 µM (active) | < 0.0001 µM (active) | < 0.0001 µM (active) | 0.000172 µM (active) | < 0.0001 µM (active) | < 0.0001 µM (active) | < 0.0001 µM (active) | < 0.0001 µM (active) |  | 0.000158 µM (active) | < 0.0001 µM (active) | < 0.0001 µM (active) | < 0.0001 µM (active) | < 0.0001 µM (active) | < 0.0001 µM (active) | < 0.01 µM (active) | < 0.0001 µM (active) |  |
| CCOC(=O)CCCn1cc(C(=O)OC)nn1 | > 100 µM (inactive) | > 100 µM (inactive) | > 100 µM (inactive) | > 100 µM (inactive) | > 100 µM (inactive) | > 100 µM (inactive) | > 100 µM (inactive) | > 100 µM (inactive) | > 100 µM (inactive) | > 100 µM (inactive) | > 100 µM (inactive) | > 100 µM (inactive) | > 100 µM (inactive) | > 100 µM (inactive) |  | > 100 µM (inactive) | > 100 µM (inactive) | > 100 µM (inactive) | > 100 µM (inactive) |
| CCCCCCCCCCCCCCCCP(=O)(O)OCC(N)C(=O)O (stereo not given) | 26.6 µM (inactive) | 17.1 µM (inactive) | 90.4 µM (inactive) | 33 µM (inactive) | 26.9 µM (inactive) | 23.7 µM (inactive) | 40.5 µM (inactive) | > 100 µM (inactive) | > 100 µM (inactive) | 19.1 µM (inactive) | 14.1 µM (inactive) | 42 µM (inactive) |  | 33.7 µM (inactive) | 13.7 µM (inactive) | 32.1 µM (inactive) | 33.2 µM (inactive) | 41.5 µM (inactive) | 14.9 µM (inactive) |
| Oc1ccc([Te]CCNCC[Te]c2ccc(O)cc2)cc1 | > 10 µM (inactive) | 12.5 µM (inactive) | 4.78 µM (inactive) | 11.9 µM (inactive) | 6.55 µM (inactive) |  | 12.8 µM (inactive) |  | 16.3 µM (inactive) | 30.5 µM (inactive) | 27.9 µM (inactive) | 28.7 µM (inactive) |  |  | 5.19 µM (inactive) |  |  | 9.82 µM (inactive) |  |
| CC(C)(C=O)CC(C#N)/C(=N\NC(N)=O)C(=O)Nc1ccccc1C(N)=O (stereo not given) | > 100 µM (inactive) | > 100 µM (inactive) | > 100 µM (inactive) | > 100 µM (inactive) |  | 38.6 µM (inactive) | > 100 µM (inactive) | > 100 µM (inactive) | > 100 µM (inactive) | > 100 µM (inactive) | > 100 µM (inactive) | > 100 µM (inactive) |  |  | > 100 µM (inactive) |  |  | > 100 µM (inactive) |  |
| O=C1Cc2c([nH]c3c(Br)cccc23)-c2ccccc2N1 | 49.5 µM (inactive) | 25.8 µM (inactive) | > 100 µM (inactive) | 30.1 µM (inactive) | 33 µM (inactive) |  | 44.9 µM (inactive) |  | 48.2 µM (inactive) |  | > 100 µM (inactive) | > 100 µM (inactive) | 24.6 µM (inactive) |  | 19.1 µM (inactive) | 33.9 µM (inactive) | > 100 µM (inactive) | 57.9 µM (inactive) | 49.8 µM (inactive) |
| OCCOCn1cc(Cn2ncc3c(SCc4ccccc4)ncnc32)nn1 | 39 µM (inactive) | 61.7 µM (inactive) | 38.3 µM (inactive) | 30 µM (inactive) | 46 µM (inactive) | 99.8 µM (inactive) | 51.1 µM (inactive) | > 100 µM (inactive) | 91.8 µM (inactive) | 48.4 µM (inactive) | 53.2 µM (inactive) | 48.4 µM (inactive) | 43.6 µM (inactive) | 31.6 µM (inactive) |  | 88.1 µM (inactive) | 14.4 µM (inactive) | 64.9 µM (inactive) | 69 µM (inactive) |
| COCn1cnc2c(=O)nc(SC)n(-c3ccccc3)c21 | > 100 µM (inactive) | > 100 µM (inactive) | > 100 µM (inactive) | > 100 µM (inactive) | > 100 µM (inactive) | > 100 µM (inactive) | > 100 µM (inactive) |  | > 100 µM (inactive) | > 100 µM (inactive) | > 100 µM (inactive) | > 100 µM (inactive) | > 100 µM (inactive) | > 100 µM (inactive) |  | > 100 µM (inactive) | > 100 µM (inactive) | > 100 µM (inactive) |  |
| COC(=O)C(=O)C(C(=O)C(=O)Nc1nnc(S)[nH]1)c1nc2ccc([N+](=O)[O-])cc2nc1O (stereo not given) | > 100 µM (inactive) | > 100 µM (inactive) | > 100 µM (inactive) | > 100 µM (inactive) | > 100 µM (inactive) | > 100 µM (inactive) | > 100 µM (inactive) | > 100 µM (inactive) | > 100 µM (inactive) | > 100 µM (inactive) | 91.4 µM (inactive) | > 100 µM (inactive) | 92.7 µM (inactive) | > 100 µM (inactive) |  | > 100 µM (inactive) | > 100 µM (inactive) | > 100 µM (inactive) | > 100 µM (inactive) |
| O=C1CCSCCC(=O)Nc2ccccc2N1 | > 100 µM (inactive) | > 100 µM (inactive) | > 100 µM (inactive) | > 100 µM (inactive) |  | > 100 µM (inactive) |  | > 100 µM (inactive) | > 100 µM (inactive) | > 100 µM (inactive) | > 100 µM (inactive) | > 100 µM (inactive) |  | > 100 µM (inactive) | > 100 µM (inactive) | > 100 µM (inactive) | > 100 µM (inactive) | > 100 µM (inactive) | > 100 µM (inactive) |
| S=C1CC(c2ccc(Cl)cc2)Sc2ccccc2N1 (stereo not given) |  | 40.8 µM (inactive) | 37.2 µM (inactive) | 25.3 µM (inactive) | > 10 µM (inactive) |  |  | 25.2 µM (inactive) | > 100 µM (inactive) | 41.4 µM (inactive) | 43.4 µM (inactive) | 34 µM (inactive) | 39.4 µM (inactive) | 16.2 µM (inactive) | 33.3 µM (inactive) | 30.4 µM (inactive) | > 100 µM (inactive) | 78.5 µM (inactive) | 24.2 µM (inactive) |
